Results taken from PubChem BioAssay (NCI).
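Five compound concentrations were applied to cells in 96-well plates for 48 hours; endpoints were derived by simple linear interpolation of the resulting dose-response curve. At the TGI there is no net growth.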

Assays:
Test in all cases: DTP human tumour cell line panel, 48 h
MDA-N = tested on: MDA-N
DU-145 prostate = tested on: DU-145 prostate
HCC-2998 colon = tested on: HCC-2998 colon
OVCAR-8 ovarian = tested on: OVCAR-8 ovarian
MALME-3M melanoma = tested on: MALME-3M melanoma
SN12C renal = tested on: SN12C renal
OVCAR-5 ovarian = tested on: OVCAR-5 ovarian
UACC-62 melanoma = tested on: UACC-62 melanoma
CCRF-CEM leukemia = tested on: CCRF-CEM leukemia
NCI-H23 lung = tested on: NCI-H23 lung

Measured: TGI

c1ccc(CCNc2ccccn2)nc1
> 100 µM: all assays above

Cc1cc2oc(=N)c(C#N)c(C)c2cc1C
> 100 µM: all assays above
